Reference: ChEMBL document CHEMBL5120845, “Design and synthesis of novel macrolones bridged with linkers from 11,12-positions of macrolides” (Bioorg Med Chem Lett, 2022)
Converted amounts (≈) assume the structure as drawn.

Tests used:
[1] = Intrinsic clearance in human liver microsomes at 1 uM by LC-MS/MS analysis; assay type: ADME, Microsome; conditions: read-out: CLH
[2] = Stability in rat liver microsomes assessed as unchanged drug level at 1 uM after 60 mins by LC-MS/MS analysis; assay type: ADME, Microsome; conditions: read-out: Stability
[3] = Half life in human liver microsomes at 1 uM by LC-MS/MS analysis; assay type: ADME, Microsome
[4] = Stability in rat liver microsomes assessed as unchanged drug level at 1 uM by LC-MS/MS analysis; assay type: ADME, Microsome; conditions: time 60 min, read-out: Stability
Streptococcus pneumoniae [5] = assay: Antibacterial activity against Streptococcus pneumoniae ATCC 49619 by microbroth dilution method; assay type: functional
[6] = system: Mycoplasmoides pneumoniae; assay: Antibacterial activity against erythromycin-resistant Mycoplasma pneumoniae A2058T by microbroth dilution method; assay type: functional
Streptococcus pneumoniae [7] = assay: Antibacterial activity against Streptococcus pneumoniae 07P390 by microbroth dilution method; assay type: functional
Streptococcus pyogenes = assay: Antibacterial activity against Streptococcus pyogenes 12-206 by microbroth dilution method; assay type: functional
Staphylococcus aureus [8] = assay: Antibacterial activity against Staphylococcus aureus PU32 by microbroth dilution method; assay type: functional
Haemophilus influenzae = assay: Antibacterial activity against Haemophilus influenzae ATCC 49247 by microbroth dilution method; assay type: functional
[9] = system: Mycoplasmoides pneumoniae; assay: Antibacterial activity against erythromycin-resistant Mycoplasma pneumoniae A2059G by microbroth dilution method; assay type: functional
[10] = system: Mycoplasmoides pneumoniae; assay: Antibacterial activity against erythromycin-susceptible Mycoplasma pneumoniae ATCC 29342 by microbroth dilution method; assay type: functional
[11] = system: Mycoplasmoides pneumoniae; assay: Antibacterial activity against erythromycin-resistant Mycoplasma pneumoniae A2058G by microbroth dilution method; assay type: functional
Staphylococcus aureus [12] = assay: Antibacterial activity against Staphylococcus aureus 15B196 by microbroth dilution method; assay type: functional
Streptococcus pneumoniae [13] = assay: Antibacterial activity against Streptococcus pneumoniae PU09 by microbroth dilution method; assay type: functional

| SMILES | CLint scaled at 1 µM [1] | remaining at 1 h, 1 µM [2] | half-life at 1 µM [3] | remaining at 1 h, 1 µM [4] | MIC (Streptococcus pneumoniae [5]) | MIC [6] | MIC (Streptococcus pneumoniae [7]) | MIC (Streptococcus pyogenes) | MIC (Staphylococcus aureus [8]) | MIC (Haemophilus influenzae) | MIC [9] | MIC [10] | MIC [11] | MIC (Staphylococcus aureus [12]) | MIC (Streptococcus pneumoniae [13]) |
| --- | --- | --- | --- | --- | --- | --- | --- | --- | --- | --- | --- | --- | --- | --- | --- |
| CCOc1ccc2ccc(=O)oc2c1 | 70.2 mL/min/kg | 8.69% | 17.8 min | 0.695% |  |  |  |  |  |  |  |  |  |  |  |
| CC[C@H]1OC(=O)[C@H](C)C(=O)[C@H](C)[C@@H](O[C@@H]2O[C@H](C)C[C@H](N(C)C)[C@H]2O)[C@](C)(OC)C[C@@H](C)C(=O)[C@H](C)[C@H]2N(CCCN3CCN(c4cc5c(cc4F)c(=O)c(C(=O)O)cn5C4CC4)CC3)C(=O)O[C@]12C | 11.3 mL/min/kg | 65% | 110 min | 95.1% | 0.016 µg/mL (≈ 0.0163 µM) | 8 µg/mL (≈ 8.13 µM) | 0.12 µg/mL (≈ 0.122 µM) | 1 µg/mL (≈ 1.02 µM) | 1 µg/mL (≈ 1.02 µM) | 8 µg/mL (≈ 8.13 µM) | 8 µg/mL (≈ 8.13 µM) | 0.008 µg/mL (≈ 0.00813 µM) | 8 µg/mL (≈ 8.13 µM) | 64 µg/mL (≈ 65 µM) | 1 µg/mL (≈ 1.02 µM) |
| CC[C@H]1OC(=O)[C@H](C)C(=O)[C@H](C)[C@@H](O[C@@H]2O[C@H](C)C[C@H](N(C)C)[C@H]2O)[C@](C)(OC)C[C@@H](C)C(=O)[C@H](C)[C@H]2N(CCCCn3cnc(-c4cccnc4)c3)C(=O)O[C@]12C [TELITHROMYCIN] | 38.4 mL/min/kg | 26.3% | 32.4 min | 93.2% | 0.008 µg/mL (≈ 0.00985 µM) | 256 µg/mL (≈ 315 µM) | 0.06 µg/mL (≈ 0.0739 µM) | 0.12 µg/mL (≈ 0.148 µM) | 0.5 µg/mL (≈ 0.616 µM) | 4 µg/mL (≈ 4.93 µM) | 256 µg/mL (≈ 315 µM) | 0.008 µg/mL (≈ 0.00985 µM) | 256 µg/mL (≈ 315 µM) | 64 µg/mL (≈ 78.8 µM) | 1 µg/mL (≈ 1.23 µM) |
| CC[C@H]1OC(=O)[C@H](C)C(=O)[C@H](C)[C@@H](O[C@@H]2O[C@H](C)C[C@H](N(C)C)[C@H]2O)[C@](C)(OC)C[C@@H](C)C(=O)[C@H](C)[C@H]2N(CCCCc3ccc4c(=O)c(C(=O)O)cn(C5CC5)c4c3)C(=O)O[C@]12C | 31.9 mL/min/kg | 35.1% | 39.1 min | 100% | ≤ 0.008 µg/mL | 16 µg/mL (≈ 17.9 µM) | 2 µg/mL (≈ 2.23 µM) | 0.25 µg/mL (≈ 0.279 µM) | 1 µg/mL (≈ 1.12 µM) | 4 µg/mL (≈ 4.46 µM) | 32 µg/mL (≈ 35.7 µM) | 0.008 µg/mL (≈ 0.00893 µM) | 32 µg/mL (≈ 35.7 µM) | 8 µg/mL (≈ 8.93 µM) | 0.5 µg/mL (≈ 0.558 µM) |
| CC[C@H]1OC(=O)[C@H](C)C(=O)[C@H](C)[C@@H](O[C@@H]2O[C@H](C)C[C@H](N(C)C)[C@H]2O)[C@](C)(OC)C[C@@H](C)C(=O)[C@H](C)[C@H]2N(CCCCC#Cc3ccc4c(c3)c(=O)c(C(=O)O)cn4C3CC3)C(=O)O[C@]12C |  |  |  |  | 0.016 µg/mL (≈ 0.0174 µM) |  | 128 µg/mL (≈ 139 µM) | 4 µg/mL (≈ 4.35 µM) | 2 µg/mL (≈ 2.17 µM) | 32 µg/mL (≈ 34.8 µM) |  |  |  | 256 µg/mL (≈ 278 µM) | 1 µg/mL (≈ 1.09 µM) |
